Like-named read-outs stand apart in the source and are kept apart here.
Tested on: murine neural precursor cells (neurosphere cultures)
Assay: HTS of LOPAC library against secondary neurosphere cultures, MTT proliferation assay at 3 μM, day 7 (z score, P value)
Format: cell-based, mouse
[1] = LOPAC library screen, 3 μM, MTT, secondary neurosphere cultures, day 7
[2] = LOPAC primary screen, neurosphere MTT proliferation, 3 μM, day 7
[3] = yes/no: significantly inhibited neurosphere proliferation (P<0.01) in the primary screen
[4] = yes = significantly inhibited neurosphere proliferation (P<0.01) in the primary screen
[5] = LOPAC library screen, 3 μM, MTT, neurosphere cultures
[6] = yes/no: significantly inhibited neurosphere proliferation (P<0.01) in primary screen
[7] = LOPAC screen, neurosphere MTT proliferation, 3 μM, day 7
[8] = LOPAC library screen at 3 μM, secondary neurosphere cultures, MTT
[9] = yes/no: significantly inhibited neurosphere proliferation in the primary screen
[10] = yes/no: significantly inhibited neurosphere proliferation in primary screen
[11] = primary LOPAC screen, 3 μM, MTT, neurosphere proliferation

| SMILES | Z score [2] | Z Score | Activity [6] | Z Score (168 h, 3 µM) | Z score (168 h, 3 µM) | other results |
| --- | --- | --- | --- | --- | --- | --- |
| CN(C)CCC(c1ccc(Cl)cc1)c1ccccn1.O=C(O)/C=C\C(=O)O (single isomer, unassigned; (+)) [(+)-Chlorpheniramine maleate] | −1.272 | – | – | – | – | Activity: no; Z Score [1]: −1.272 |
| COc1ccc2c(c1OC)C(=O)OC2C1c2cc3c(cc2CCN1C)OCO3 (single isomer, unassigned; (+)) [(+)-Hydrastine] | −0.836 | −0.8362 | – | – | – | Activity [3]: no |
| CC12NC(Cc3ccccc31)c1ccccc12.O=C(O)/C=C\C(=O)O (single isomer, unassigned; (+)) [(+)-MK-801 hydrogen maleate] | −0.098 | −0.09805 | – | – | – | Activity [4]: no |
| CC(C)NCC(O)c1ccc(O)c(O)c1.Cl (single isomer, unassigned; (-)) [(−)-Isoproterenol hydrochloride] | 0.237 | – | no | – | – | Z Score [5]: 0.2367 |
| CN1CCCC1c1cccnc1.O=C(O)C(O)C(O)C(=O)O (single isomer, unassigned; (-)) [(−)-Nicotine hydrogen tartrate salt] | – | 0.04498 | – | – | – | Activity: no; Z score: 0.045 |
| CCN1CCCC1CNC(=O)c1cc(S(N)(=O)=O)ccc1OC (single isomer, unassigned; (-)) [(−)-Sulpiride] | −2.647 | – | – | – | – | Z Score [1]: −2.647; Activity [3]: yes |
| CC(N)C(O)c1ccc(O)c(O)c1 (single isomer, unassigned; (-)) [(−)-alpha-Methylnorepinephrine] | – | 1.193 | no | – | – | Z score [7]: 1.193 |
| N.N.N.Nc1ncnc2c1ncn2C1OC(COP(=O)(O)OP(=O)(O)OP(=O)(O)OP(=O)(O)OC[C@H]2O[C@@H](n3cnc4c(N)ncnc43)C(O)C2O)[C@@H](O)C1O (stereo in doubt) | – | – | no | – | – | Z Score [8]: −0.2867; Z score [7]: −0.287 |
| Nc1ncnc2c1nc(Sc1ccc(Cl)cc1)n2C1OC2COP(=O)(O)OC2C1O (stereo in doubt) [8-(4-Chlorophenylthio)-cAMP sodium] | – | – | no | – | – | Z Score [5]: 1.217; Z score [7]: 1.217 |
| CCCCC1(C2CCCC2)Cc2cc(OCC(=O)O)c(Cl)c(Cl)c2C1=O (stereo in doubt) [R(+)-Butylindazone] | – | 0.02924 | no | – | – | Z score [7]: 0.029 |
| C[N+]1(C)CCN(c2ccccc2)CC1.[I-] [1,1-Dimethyl-4-phenyl-piperazinium iodide] | – | −1.057 | no | – | – | Z score [7]: −1.057 |
| CCCc1c(-c2ccc(O)cc2)nn(-c2ccc(O)cc2)c1-c1ccc(O)cc1 [1,3,5-tris(4-hydroxyphenyl)-4-propyl-1H-pyrazole] | – | – | no | 0.7717 | 0.772 | – |
| CCn1c(=O)c2[nH]c(-c3ccccc3)nc2n(CC)c1=O [1,3-Diethyl-8-phenylxanthine] | – | – | – | 2.005 | 2.005 | Activity [9]: no |
| Cn1c(=O)c2[nH]c(-c3ccccc3)nc2n(C)c1=O [1,3-Dimethyl-8-phenylxanthine] | – | – | – | 0.7518 | 0.752 | Activity [10]: no |
| CCCn1c(=O)c2c(ncn2C)n(CCC)c1=O [1,3-Dipropyl-7-methylxanthine] | – | – | no | −0.08896 | −0.089 | – |
| CCCn1c(=O)c2[nH]c(-c3ccc(S(=O)(=O)O)cc3)nc2n(CCC)c1=O [1,3-Dipropyl-8-p-sulfophenylxanthine] | – | 4.743 | – | – | – | Z score: 4.743; Activity [9]: no |
| Br.Br.N=C(N)SCCc1cccc(CCSC(=N)N)c1 [1,3-PBIT dihydrobromide] | 2.221 | 2.221 | – | – | – | Activity [10]: no |
| OC[C@H]1NC[C@@H](O)[C@@H]1O [1,4-Dideoxy-1,4-imino-D-arabinitol] | – | – | no | −0.008617 | −0.009 | – |
| Br.Br.N=C(N)SCCc1ccc(CCSC(=N)N)cc1 [1,4-PBIT dihydrobromide] | −1.179 | −1.179 | – | – | – | Activity [10]: no |
| Oc1cccc2c(O)nccc12 [1,5-Isoquinolinediol] | 0.027 | – | no | – | – | Z Score [5]: 0.02674 |
| Cn1c(=O)[nH]c2ncn(C)c2c1=O [1,7-Dimethylxanthine] | – | – | no | −0.6623 | −0.662 | – |
| NCCCCCCCCCCN [1,10-Diaminodecane] | – | – | no | 0.1393 | 0.139 | – |
| O.c1cnc2c(c1)ccc1cccnc12 [1,10-Phenanthroline monohydrate] | −0.886 | −0.8855 | – | – | – | Activity [10]: no |
| Cl.c1ccc2c(N3CCNCC3)cccc2c1 [1-(1-Naphthyl)piperazine hydrochloride] | 0.230 | 0.2301 | – | – | – | Activity [10]: no |
| Clc1ccc(C(c2ccccc2Cl)C(Cl)Cl)cc1 (centres unmarked) [1-(2-Chlorophenyl)-1-(4-chlorophenyl)-2,2-dichloroethane] | −2.508 | – | – | – | – | Z Score [1]: −2.508; Activity [4]: yes |

| SMILES | Z score [2] | Z Score | Activity [6] | Z Score (168 h, 3 µM) | Z score (168 h, 3 µM) | other results |
| --- | --- | --- | --- | --- | --- | --- |
| COc1ccccc1N1CCNCC1.Cl [1-(2-Methoxyphenyl)piperazine hydrochloride] | −0.639 | −0.6388 | – | – | – | Activity [10]: no |
| Cl.Cl.Clc1cccc(N2CCNCC2)c1 [1-(3-Chlorophenyl)piperazine dihydrochloride] | – | – | no | – | – | Z score [7]: 0.952 |
| COc1ccc2c(c1)c(CC(=O)O)c(C)n2Cc1ccc(Cl)cc1 [1-(4-Chlorobenzyl)-5-methoxy-2-methylindole-3-acetic acid] | – | – | – | – | – | Z Score [1]: −1.584; Z score [11]: −1.584; Activity [9]: no |
| COc1ccc2c(c1)c(CC(=O)O)c(C)n2Cc1ccc(F)cc1 [1-(4-Fluorobenzyl)-5-methoxy-2-methylindole-3-acetic acid] | – | – | no | −0.5376 | −0.538 | – |
| Oc1ccc(Cn2ccnc2S)cc1 [1-(4-Hydroxybenzyl)imidazole-2-thiol] | – | – | no | 0.7628 | 0.763 | – |
| CC1CNCCN1S(=O)(=O)c1cccc2cnccc12.Cl.Cl (centres unmarked) [1-(5-Isoquinolinylsulfonyl)-2-methylpiperazine dihydrochloride] | – | – | no | 0.3352 | 0.335 | – |
| CC1CN(S(=O)(=O)c2cccc3cnccc23)CCN1.Cl.Cl (centres unmarked) [1-(5-Isoquinolinylsulfonyl)-3-methylpiperazine dihydrochloride] | – | – | no | 0.4769 | 0.477 | – |
| Cl.N=C(N)NC(=N)Nc1cccc(Cl)c1 [1-(m-Chlorophenyl)-biguanide hydrochloride] | 1.795 | 1.795 | – | – | – | Activity [3]: no |
| C=CCn1c(=O)c2c(nc(-c3ccc(S(=O)(=O)O)cc3)n2C)n(C)c1=O [1-Allyl-3,7-dimethyl-8-p-sulfophenylxanthine] | – | – | – | – | – | Z Score [1]: −2.178; Z score [11]: −2.178; Activity [9]: no |
| Cl.NC1(C(=O)O)CCCCC1 [1-Amino-1-cyclohexanecarboxylic acid hydrochloride] | – | – | – | −0.7495 | −0.749 | Activity [9]: no |
| Nn1nnc2ccccc21 [1-Aminobenzotriazole] | – | – | – | 0.5236 | 0.524 | Activity [9]: no |
| Cl.NC1(C(=O)O)CC1 [1-Aminocyclopropanecarboxylic acid hydrochloride] | – | −2.401 | – | – | – | Activity: yes; Z score: −2.401 |
| Cl.OC[C@H]1NC[C@H](O)[C@@H](O)[C@@H]1O [1-Deoxynojirimycin hydrochloride] | – | – | no | – | – | Z Score [5]: 1.242; Z score [7]: 1.242 |
| Cl.Cl.Cn1cnc(CCN)c1 [1-Methylbistamine dihydrochloride] | – | 0.3068 | – | – | – | – |
| Cl.Cl.Cn1cnc(CCN)c1 [1-Methylhistamine dihydrochloride] | 0.307 | – | – | – | – | Activity [4]: no |
| Cn1ccnc1 [1-Methylimidazole] | – | – | – | −0.8469 | −0.847 | Activity [4]: no |
| S=C(Nc1ccccc1)Nc1nccs1 [1-Phenyl-3-(2-thiazolyl)-2-thiourea] | – | – | – | 1.208 | 1.208 | Activity [10]: no |
| N=C(N)NC(=N)Nc1ccccc1 [1-Phenylbiguanide] | – | – | – | −2.689 | −2.689 | Activity [3]: yes |
| FC(F)(F)c1ccccc1-n1ccnc1 [1-[2-(Trifluoromethyl)phenyl]imidazole] | – | – | – | −0.1576 | −0.158 | Activity [10]: no |
| COc1ccc2c(c1)c(CC(=O)O)c(C)n2C(=O)c1ccccc1 [1-benzoyl-5-methoxy-2-methylindole-3-acetic acid] | – | – | – | – | – | Z Score [8]: −0.955; Z score [11]: −0.955; Activity [9]: no |
| c1ccc(-c2ccccn2)nc1 [2,2′-Bipyridyl] | – | 1.455 | no | – | – | Z score [7]: 1.455 |
| CC(=O)C(C)=NO [2,3-Butanedione monoxime] | – | – | – | −1.81 | −1.810 | Activity [9]: no |
| CC(=O)C(C)=O [2,3-Butanedione] | – | −1.642 | no | – | – | Z score [7]: −1.642 |
| COC1=C(OC)C(=O)c2ccccc2C1=O [2,3-Dimethoxy-1,4-naphthoquinone] | −10.398 | −10.4 | – | – | – | Activity [3]: yes |

— patent US8058243B2, “Method for treating a brain cancer with ifenprodil” (HSC Research and Development Limited Partnership, priority 2006, dated 2011)
